From US20250179032A1, “HETEROCYCLIC INHIBITORS OF GLUT9 FOR TREATMENT OF DISEASE” (HORIZON THERAPEUTICS IRELAND DAC, priority 2022, published 2025)

Biological target: T1, H. sapiens SLC2A9 variant 2 (GLUT9B) (Homo sapiens, UniProt Q9NRM0)
T1 sequence (Q9NRM0 1-511 isoform Q9NRM0-2): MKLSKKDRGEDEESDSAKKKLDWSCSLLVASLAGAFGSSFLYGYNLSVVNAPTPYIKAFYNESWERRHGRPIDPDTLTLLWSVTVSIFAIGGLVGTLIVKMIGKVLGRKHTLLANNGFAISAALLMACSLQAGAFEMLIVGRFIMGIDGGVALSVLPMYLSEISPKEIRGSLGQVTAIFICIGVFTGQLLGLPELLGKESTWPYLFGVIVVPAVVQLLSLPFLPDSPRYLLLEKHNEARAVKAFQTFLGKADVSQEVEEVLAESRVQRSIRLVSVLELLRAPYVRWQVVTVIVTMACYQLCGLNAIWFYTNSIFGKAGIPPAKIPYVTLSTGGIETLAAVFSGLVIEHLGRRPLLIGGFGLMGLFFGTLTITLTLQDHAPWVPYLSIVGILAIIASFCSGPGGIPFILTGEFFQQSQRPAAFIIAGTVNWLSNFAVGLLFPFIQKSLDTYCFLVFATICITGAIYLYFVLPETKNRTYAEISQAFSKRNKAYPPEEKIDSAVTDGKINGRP
Test: GLUT9 functional assay: uric acid uptake in HEK293T cells, allantoin formation by MS/MS as proxy of GLUT9B inhibition
Type: cell-based
Conditions: 15 minute assay; HEK293T cells stably expressing GLUT9B and transiently A. oryzae uricase; uric acid 0.3 mM, 37° C.; read-out: 15 min IC50
In short: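 HEK293T cells stably expressing human GLUT9B and transiently expressing A. oryzae uricase, exposed across a 12-point curve to 0.3 mM uric acid (Km) in sodium gluconate buffer pH 7.4 for 15 or 60 min at 37° C. Allantoin in lysates quantified by RapidFire MS/MS (positive ion) against a matrix-matched standard curve as proxy for uptake.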

| Compound | IC50 [µM] |
| --- | --- |
| O=C(O)C1(O)CCN(c2nc(CCCC(F)(F)F)cnc2-c2ccc3occc3c2)CC1 [Compound 174, 1-(3-(benzofuran-5-yl)-6-(4,4,4-trifluorobutyl)pyrazin-2-yl)-4-hydroxypiperidine-4-carboxylic acid] | 0.5 to 2 |
| COCCCc1cnc(-c2ccc3occc3c2)c(N2CC(C(=O)O)C2)n1 [Compound 175, 1-(3-(benzofuran-5-yl)-6-(3-methoxypropyl)pyrazin-2-yl)azetidine-3-carboxylic acid] | > 2 |
| COCCCc1cnc(-c2ccc3c(c2)OCO3)c(N2CC(C(=O)O)C2)n1 [Compound 176, 1-(3-(benzo[d][1,3]dioxol-5-yl)-6-(3-methoxypropyl)pyrazin-2-yl)azetidine-3-carboxylic acid] | > 2 |
| O=C(O)C1CCN(c2nc(CCCOCC(F)(F)F)cnc2-c2ccc3occc3c2)CC1 [Compound 177, 1-(3-(benzofuran-5-yl)-6-(3-(2,2,2-trifluoroethoxy)propyl)pyrazin-2-yl)piperidine-4-carboxylic acid] | < 0.5 |

Same assay, conditions: 60 minute assay; HEK293T cells stably expressing GLUT9B and transiently A. oryzae uricase; uric acid 0.3 mM, 37° C.; read-out: 60 min IC50

| Compound | IC50 [µM] |
| --- | --- |
| COCCCc1cnc(-c2ccc3occc3c2)c(N2CC(C(=O)O)C2)n1 [Compound 175, 1-(3-(benzofuran-5-yl)-6-(3-methoxypropyl)pyrazin-2-yl)azetidine-3-carboxylic acid] | > 2 |
| O=C(O)C1CCN(c2nc(CCCOCC(F)(F)F)cnc2-c2ccc3c(c2)OCO3)CC1 [Compound 178, 1-(3-(benzo[d][1,3]dioxol-5-yl)-6-(3-(2,2,2-trifluoroethoxy)propyl)pyrazin-2-yl)piperidine-4-carboxylic acid] | 0.5 to 2 |
| COCCCc1cnc(-c2ccc3oc(COC)cc3c2)c(N2CCC(C(=O)O)CC2)n1 [Compound 179, 1-(3-(2-(methoxymethyl)benzofuran-5-yl)-6-(3-methoxypropyl)pyrazin-2-yl)piperidine-4-carboxylic acid] | 0.5 to 2 |
| COCCCc1cnc(-c2ccc3occc3c2)c(N2CCC3(C(=O)O)CC2C3)n1 [Compound 181, 2-(3-(benzofuran-5-yl)-6-(3-methoxypropyl)pyrazin-2-yl)-2-azabicyclo[3.1.1]heptane-5-carboxylic acid] | < 0.5 |
| COCCCc1cnc(-c2ccc3occc3c2)c(NC23CC(C(=O)O)(C2)C3)n1 [Compound 182, 3-((3-(benzofuran-5-yl)-6-(3-methoxypropyl)pyrazin-2-yl)amino)bicyclo[1.1.1]pentane-1-carboxylic acid] | > 2 |
| COCCCc1cnc(-c2cc(F)c3occc3c2)c(N2CCC(C)(C(=O)O)CC2)n1 [Compound 184, 1-(3-(7-fluorobenzofuran-5-yl)-6-(3-methoxypropyl)pyrazin-2-yl)-4-methylpiperidine-4-carboxylic acid] | < 0.5 |
| COCCCc1cnc(-c2cc(F)c3occc3c2)c(N2CCC(O)(C(=O)O)CC2)n1 [Compound 185, 1-(3-(7-fluorobenzofuran-5-yl)-6-(3-methoxypropyl)pyrazin-2-yl)-4-hydroxypiperidine-4-carboxylic acid] | 0.5 to 2 |
| COCCCc1cnc(-c2cc(F)c3occc3c2)c(N2CCC(C(=O)O)C3CC32)n1 (stereo not shown) [Compound 186, 2-(3-(7-fluorobenzofuran-5-yl)-6-(3-methoxypropyl)pyrazin-2-yl)-2-azabicyclo[4.1.0]heptane-5-carboxylic acid] | < 0.5 |
| COCCCc1cnc(-c2cc(F)c3occc3c2)c(N2CCC(C(=O)O)C(F)(F)C2)n1 (stereo not shown) [Compound 187, 3,3-difluoro-1-(3-(7-fluorobenzofuran-5-yl)-6-(3-methoxypropyl)pyrazin-2-yl)piperidine-4-carboxylic acid] | < 0.5 |
| O=C(O)C1CCN(c2nc(CCCC(F)F)cnc2-c2cc(F)c3occc3c2)CC1 [Compound 188, 1-(6-(4,4-difluorobutyl)-3-(7-fluorobenzofuran-5-yl)pyrazin-2-yl)piperidine-4-carboxylic acid] | < 0.5 |
| COCCCc1cnc(-c2ccc3c(c2)OCO3)c(N2CCC(C(=O)O)CC2)n1 [Compound 189, 1-(3-(benzo[d][1,3]dioxol-5-yl)-6-(3-Methoxypropyl)Pyrazin-2-yl)piperidine-4-carboxylic acid] | < 0.5 |
| COCCCc1cnc(-c2cc(F)c3c(c2)OCO3)c(N2CCC(C(=O)O)CC2)n1 [Compound 190, 1-(3-(7-Fluorobenzo[d][1,3]dioxol-5-yl)-6-(3-Methoxypropyl)Pyrazin-2-yl)piperidine-4-carboxylic acid] | < 0.5 |
| COCCCc1cnc(-c2ccc3c(c2)OCO3)c(N2CCC(C(=O)O)CC2)c1 [Compound 191, 1-(2-(benzo[d][1,3]dioxol-5-yl)-5-(3-Methoxypropyl)Pyridin-3-yl)piperidine-4-carboxylic acid] | < 0.5 |
| COCCCc1cnc(-c2cc(F)c3c(c2)CCO3)c(N2CCC(C)(C(=O)O)CC2)n1 [Compound 192, 1-(3-(7-fluoro-2,3-dihydrobenzofuran-5-yl)-6-(3-methoxypropyl)pyrazin-2-yl)-4-methylpiperidine-4-carboxylic acid] | < 0.5 |
| COCCCc1cnc(-c2ccc3c[nH]nc3c2)c(N2CCC(C(=O)O)CC2)n1 [Compound 193, 1-(3-(2H-indazol-6-yl)-6-(3-methoxypropyl)pyrazin-2-yl)piperidine-4-carboxylic acid] | > 2 |
| COCCCc1cnc(-c2ccnc3[nH]ccc23)c(N2CCC(C(=O)O)CC2)n1 [Compound 194, 1-(6-(3-methoxypropyl)-3-(1H-pyrrolo[2,3-b]pyridin-4-yl)pyrazin-2-yl)piperidine-4-carboxylic acid] | > 2 |
| COCCCc1cnc(-c2ccc3ncnn3c2)c(N2CCC(C(=O)O)CC2)n1 [Compound 195, 1-(3-([1,2,4]triazolo[1,5-a]pyridin-6-yl)-6-(3-methoxypropyl)pyrazin-2-yl)piperidine-4-carboxylic acid] | > 2 |
| COCCCc1cnc(-c2cnc3nccn3c2)c(N2CCC(C(=O)O)CC2)n1 [Compound 196, 1-(3-(imidazo[1,2-a]pyrimidin-6-yl)-6-(3-methoxypropyl)pyrazin-2-yl)piperidine-4-carboxylic acid] | > 2 |
| COCCCc1cnc(-c2ccc3c(C)[nH]nc3c2)c(N2CCC(C(=O)O)CC2)n1 [Compound 197, 1-(6-(3-methoxypropyl)-3-(3-methyl-2H-indazol-6-yl)pyrazin-2-yl)piperidine-4-carboxylic acid] | > 2 |
| COCCCc1cnc(-c2ccc3nn(C)cc3c2)c(N2CCC(C(=O)O)CC2)n1 [Compound 198, 1-(6-(3-methoxypropyl)-3-(2-methyl-2H-indazol-5-yl)pyrazin-2-yl)piperidine-4-carboxylic acid] | > 2 |
| COCCCc1cnc(-c2cnc3ccccc3c2)c(N2CCC(C(=O)O)CC2)n1 [Compound 199, 1-(6-(3-methoxypropyl)-3-(quinolin-3-yl)pyrazin-2-yl)piperidine-4-carboxylic acid] | > 2 |
| COCCCc1cnc(-c2ccnc3ccccc23)c(N2CCC(C(=O)O)CC2)n1 [Compound 200, 1-(6-(3-methoxypropyl)-3-(quinolin-4-yl)pyrazin-2-yl)piperidine-4-carboxylic acid] | > 2 |
| COCCCc1cnc(-c2cc(C(F)(F)F)nn2C)c(N2CCC(C(=O)O)CC2)n1 [Compound 201, 1-(6-(3-methoxypropyl)-3-(1-methyl-3-(trifluoromethyl)-1H-pyrazol-5-yl)pyrazin-2-yl)piperidine-4-carboxylic acid] | > 2 |
| COCCCc1cnc(-c2ccnn2CCC(C)C)c(N2CCC(C(=O)O)CC2)n1 [Compound 202, 1-(3-(1-isopentyl-1H-pyrazol-5-yl)-6-(3-methoxypropyl)pyrazin-2-yl)piperidine-4-carboxylic acid] | > 2 |
| COCCCc1cnc(-c2cc3sccc3s2)c(N2CCC(C(=O)O)CC2)n1 [Compound 203, 1-(6-(3-methoxypropyl)-3-(thieno[3,2-b]thiophen-2-yl)pyrazin-2-yl)piperidine-4-carboxylic acid] | > 2 |
| COCCCc1cnc(-c2ccc3nsnc3c2)c(N2CCC(C(=O)O)CC2)n1 [Compound 204, 1-(3-(benzo[c][1,2,5]thiadiazol-5-yl)-6-(3-methoxypropyl)pyrazin-2-yl)piperidine-4-carboxylic acid] | > 2 |
| COCCCc1cnc(-c2ccc3nccn3c2)c(N2CCC(C(=O)O)CC2)n1 [Compound 205, 1-(3-(imidazo[1,2-a]pyridin-6-yl)-6-(3-methoxypropyl)pyrazin-2-yl)piperidine-4-carboxylic acid] | > 2 |
| COCCCc1cnc(-c2cnn3c2CCCC3)c(N2CCC(C(=O)O)CC2)n1 [Compound 206, 1-(6-(3-methoxypropyl)-3-(4,5,6,7-tetrahydropyrazolo[1,5-a]pyridin-3-yl)pyrazin-2-yl)piperidine-4-carboxylic acid] | > 2 |
| COCCCc1cnc(-c2ccc3cncn3c2)c(N2CCC(C(=O)O)CC2)n1 [Compound 207, 1-(3-(imidazo[1,5-a]pyridin-6-yl)-6-(3-methoxypropyl)pyrazin-2-yl)piperidine-4-carboxylic acid] | > 2 |
| COCCCc1cnc(-c2ccn3ccnc3c2)c(N2CCC(C(=O)O)CC2)n1 [Compound 208, 1-(3-(imidazo[1,2-a]pyridin-7-yl)-6-(3-methoxypropyl)pyrazin-2-yl)piperidine-4-carboxylic acid] | > 2 |
